Results published in patent publication US7914785B2, “B-cell depleting agents, like anti-CD20 antibodies or fragments thereof for the treatment of chronic fatigue syndrome” (Bergen Teknologieverforing AS, priority 2009, dated 2011).

Tests used:
[1] = test system: CFS symptoms in patients with chronic fatigue syndrome; test: Pilot treatment of three CFS patients with Rituximab infusions and weekly oral Methotrexate; type: in vivo, human; conditions: pilot patient 1, weekly oral low-dose 7.5 to 12.5 mg per week; for clinical response on CFS symptoms: used for 22 weeks
From the text: The symptom score of CFS symptoms which is in a range of 0 to 10 wherein 0 means no symptoms while 10 refers to very severe symptoms of CFS.
Methotrexat (Mtx) is a therapeutic agent with known (but not well understood) immunomodulatory properties.

[2] = test system: B-cells in rheumatoid arthritis patients; conditions: given orally on a weekly schedule for rheumatoid arthritis; cited from earlier work
[3] = test system: CFS patients; conditions: 99 CFS patients; cited from earlier work
[4] = test system: patients with long-standing fatigue; conditions: 12 patients treated; cited from earlier work
[5] = test system: patients with CFS; conditions: six patients with CFS; cited from earlier work

For `CN(Cc1cnc2nc(N)nc(N)c2n1)c1ccc(C(=O)N[C@@H](CCC(=O)O)C(=O)O)cc1` [Methotrexate], the “start of CFS symptom recovery after onset of weekly treatment” value [1] was 10 weeks, the “clinical response on CFS symptoms” value [1] was “significant and moderate clinical response on CFS symptoms” and the “clinical response on CFS symptoms” value ([1]; listed as Mtx) was “gradual and moderate CFS symptom recovery”. For the same compound, the “start of CFS symptom recovery after onset of weekly treatment” value ([1]; listed as Mtx) was 12 weeks and the B-cell depletion [2] was “moderate B-cell depletion”.
In the case of `CC[C@H]1OC(=O)[C@H](C)[C@@H](O[C@H]2C[C@@](C)(OC)[C@@H](O)[C@H](C)O2)[C@H](C)[C@@H](O[C@@H]2O[C@H](C)C[C@H](N(C)C)[C@H]2O)[C@](C)(O)C[C@@H](C)CN(C)[C@H](C)[C@@H](O)[C@]1(C)O` [azithromycin], the “CFS patients with improvement” value [3] is listed as 59%.
For `CC(C)[C@H](N)C(=O)OCC(CO)OCn1cnc2c(=O)nc(N)[nH]c21` (some centres unmarked) [valganciclovir], the “patients with improvement of the symptoms” value [4] is listed as “nine”.
In the case of etanercept, the clinical outcome [5] is given as “clinical benefit”.
